From BindingDB's records for doi:10.1016/j.bmc.2008.02.078 (University of Tokyo, 2008)
pIC50: −log10 of the molar value.

Molecular target: Alpha-glucosidase MAL32 (Saccharomyces cerevisiae (strain ATCC 204508 / S288c), UniProt P38158)
Test: alpha-Glucosidase Inhibition Assay
Details: pH 7; 37 °C
Protocol: The alpha-glucosidase inhibitory activity of test compounds was determined in a 96-well plate format. The reaction mixture containing enzyme and chromogenic substrate in the presence or absence of test compounds were incubated, and the amount of released p-nitrophenol was measured based on the absorbance at 405 nm. The IC50 values were calculated from the dose-response curves.

Alpha-glucosidase MAL32, sequence (P38158 whole entry): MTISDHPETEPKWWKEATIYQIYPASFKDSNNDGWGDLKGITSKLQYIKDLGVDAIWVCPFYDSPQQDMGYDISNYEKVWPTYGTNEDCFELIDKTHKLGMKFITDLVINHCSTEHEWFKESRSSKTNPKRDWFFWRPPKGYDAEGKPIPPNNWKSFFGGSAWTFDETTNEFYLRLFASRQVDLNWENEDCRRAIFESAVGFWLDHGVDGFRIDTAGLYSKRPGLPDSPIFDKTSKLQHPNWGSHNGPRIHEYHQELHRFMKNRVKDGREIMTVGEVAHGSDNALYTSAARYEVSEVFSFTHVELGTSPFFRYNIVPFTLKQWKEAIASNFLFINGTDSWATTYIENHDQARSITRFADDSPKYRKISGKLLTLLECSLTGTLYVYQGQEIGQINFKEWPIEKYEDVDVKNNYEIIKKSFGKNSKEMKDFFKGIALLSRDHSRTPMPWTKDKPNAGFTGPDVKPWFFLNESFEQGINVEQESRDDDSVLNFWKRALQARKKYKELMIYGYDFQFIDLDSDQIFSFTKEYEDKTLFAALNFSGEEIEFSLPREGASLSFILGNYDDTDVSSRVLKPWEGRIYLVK

pIC50 | SMILES
4.00 | CC(C)CC[C@@H](O)[C@@H](C)[C@H]1CCC2C3CC=C4C[C@@H](O)CC[C@]4(C)C3C[C@@H](C)C21 (stereo partly drawn) [(2R,5S,14S,16R)-14-[(2S,3R)-3-hydroxy-6-methylheptan-2-yl]-2,16-dimethyltetracyclo[8.7.0.0^{2,7}.0^{11,15}]heptadec-7-en-5-ol]
< 4.00 | COc1ccc2cc1Oc1ccc(cc1)CCc1ccccc1-c1ccc(cc1)CC2 [16-methoxy-14-oxapentacyclo[20.2.2.2^{10,13}.1^{15,19}.0^{2,7}]nonacosa-1(24),2(7),3,5,10,12,15,17,19(27),22,25,28-dodecaene]
< 4.52 | COc1ccc2c(c1)CCc1ccc(cc1)Oc1cccc(c1)CCc1ccc-2c(OC)c1 [5,25-dimethoxy-14-oxapentacyclo[20.2.2.2^{10,13}.1^{15,19}.0^{2,7}]nonacosa-1(24),2(7),3,5,10,12,15,17,19(27),22,25,28-dodecaene]
